For this assay, the target named is T1, Legumain (Homo sapiens, UniProt Q99538).
T1 sequence (Q99538 whole entry): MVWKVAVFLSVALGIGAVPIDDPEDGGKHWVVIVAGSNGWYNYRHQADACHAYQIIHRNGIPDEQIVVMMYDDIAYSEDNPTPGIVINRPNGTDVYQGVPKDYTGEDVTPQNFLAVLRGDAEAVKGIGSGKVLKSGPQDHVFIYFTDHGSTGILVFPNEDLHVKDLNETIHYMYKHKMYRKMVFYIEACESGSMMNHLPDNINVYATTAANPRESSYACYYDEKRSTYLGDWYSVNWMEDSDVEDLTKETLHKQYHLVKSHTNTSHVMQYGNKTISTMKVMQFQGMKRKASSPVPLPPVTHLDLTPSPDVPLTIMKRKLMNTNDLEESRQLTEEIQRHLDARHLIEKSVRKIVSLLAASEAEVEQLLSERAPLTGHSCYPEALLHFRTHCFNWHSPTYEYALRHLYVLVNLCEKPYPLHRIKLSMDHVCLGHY
The assay is described as follows: Inhibition of human 8His-tagged AEP (V18 to Y433 residues) using Z-Ala-Ala-Asn-Rhl 10-(D-Pro) as substrate incubated for 30 mins followed by substrate addition by fluorescence based microplate reader analysis.
Usually IC50 stands for the concentration that inhibits the measured activity by half. For `C#Cc1ccc(C2(C(=O)N3CCC[C@H]3C(=O)NN(CC(N)=O)C(=O)CF)CC2)cc1`, it took 1 nM to reach half-maximal inhibition (IC50).
To `COc1ccc(-c2ccc(S(=O)(=O)N3CCC[C@H]3C(=O)NN(CC(N)=O)C(=O)CF)cc2)cc1` belongs 1 nM; to `C#CCOc1ccc(C2(C(=O)N3CCC[C@H]3C(=O)NN(CC(N)=O)C(=O)CF)CC2)cc1`, 1 nM.
With `NC(=O)CN(NC(=O)[C@@H]1CCCN1C(=O)C1(c2ccc(Cl)cc2)CCC1)C(=O)CF`, the half-inhibitory concentration (IC50) came out at 1 nM.

Source of the values: ChEMBL document CHEMBL5365506, “Novel Haloacethydrazides as AEP Inhibitors for Treating Alzheimer's Disease” (ACS Med Chem Lett, 2023).
